Test results taken from ChEMBL document CHEMBL3045764, “Synthesis of Both Enantiomers of Altholactone, Isoaltholactone and 5-Hydroxygoniothalamin from Tri-O-acetyl-D-glucal, and Their Biological Activities” (J Pestic Sci, 2001).

System: not listed separately
Assay: Toxicity in Artemia salina (brine shrimp) assessed as death rate after 1.5 days (reference value: 5%)
Format: organism-based
Conditions: in vivo, read-out: Activity

SMILES | mortality at 36 h [%]
O=C1C=C[C@H]2O[C@H](c3ccccc3)[C@H](O)[C@@H]2O1 | 31
O=C1C=C[C@H]2O[C@H](c3ccccc3)[C@@H](O)[C@@H]2O1 | 48
O=C1C=C[C@@H]2O[C@H](c3ccccc3)[C@H](O)[C@@H]2O1 [(+)-ISOALTHOLACTONE] | 13
O=C1C=C[C@@H]2O[C@H](c3ccccc3)[C@@H](O)[C@@H]2O1 [ALTHOLACTONE] | 40
O=C1C=C[C@H]2O[C@@H](c3ccccc3)[C@H](O)[C@H]2O1 [ENT-ALTHOLACTONE] | 31
O=C1C=C[C@H]2O[C@H](c3ccccc3)[C@@H](O)[C@H]2O1 [ENT-ISOALTHOLACTONE] | 8

System: Lactuca sativa
Assay: Inhibition of Lactuca sativa (lettuce) seed germination assessed as elongation of root by measuring germination rate (reference value: 75%)
Format: functional
Conditions: not given

SMILES | inhibition (INH) [%]
O=C1C=C[C@H]2O[C@H](c3ccccc3)[C@H](O)[C@@H]2O1 | 56
O=C1C=C[C@H]2O[C@H](c3ccccc3)[C@@H](O)[C@@H]2O1 | 63
O=C1C=C[C@@H]2O[C@H](c3ccccc3)[C@H](O)[C@@H]2O1 [(+)-ISOALTHOLACTONE] | 25
O=C1C=C[C@@H]2O[C@H](c3ccccc3)[C@@H](O)[C@@H]2O1 [ALTHOLACTONE] | 50
O=C1C=C[C@H]2O[C@@H](c3ccccc3)[C@H](O)[C@H]2O1 [ENT-ALTHOLACTONE] | 5
O=C1C=C[C@H]2O[C@H](c3ccccc3)[C@@H](O)[C@H]2O1 [ENT-ISOALTHOLACTONE] | 69
